Measured values as given in paper PMC11566853, “Chemical genetic analysis of enoxolone inhibition of Clostridioides difficile toxin production reveals adenine deaminase and ATP synthase as antivirulence targets” (The Journal of Biological Chemistry, 2024).

Target: T1, adenine deaminase (Ade) (Clostridioides difficile, UniProt A0A9R0BKJ2)
T1 construct: codon-optimized ade in pWL613a (pET28b derivative), N-terminal His-tag, expressed in E. coli BL21(DE3), Ni-NTA and Superdex 200
Experiment: surface plasmon resonance, His-captured protein
Type: binding

T1 sequence (A0A9R0BKJ2 entry or part of it): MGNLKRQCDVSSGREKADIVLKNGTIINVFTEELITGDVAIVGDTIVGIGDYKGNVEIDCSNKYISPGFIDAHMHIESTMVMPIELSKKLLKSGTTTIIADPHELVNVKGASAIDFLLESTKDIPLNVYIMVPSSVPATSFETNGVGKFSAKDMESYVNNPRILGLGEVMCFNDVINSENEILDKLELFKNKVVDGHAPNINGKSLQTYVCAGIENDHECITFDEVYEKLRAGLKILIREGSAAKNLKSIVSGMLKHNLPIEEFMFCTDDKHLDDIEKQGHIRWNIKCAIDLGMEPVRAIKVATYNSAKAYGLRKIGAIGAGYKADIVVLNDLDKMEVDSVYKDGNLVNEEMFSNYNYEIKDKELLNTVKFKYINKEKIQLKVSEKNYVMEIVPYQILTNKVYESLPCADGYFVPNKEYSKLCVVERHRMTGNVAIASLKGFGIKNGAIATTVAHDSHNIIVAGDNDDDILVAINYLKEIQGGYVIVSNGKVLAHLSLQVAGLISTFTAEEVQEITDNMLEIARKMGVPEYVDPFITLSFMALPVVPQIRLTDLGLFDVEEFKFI

Clc1ncnc2[nH]cnc12 [6-chloropurine]
Kd: 264 ± 42.9 µM

CC1(C)[C@@H](O)CC[C@]2(C)[C@H]3C(=O)C=C4[C@@H]5C[C@@](C)(C(=O)O)CC[C@]5(C)CC[C@@]4(C)[C@]3(C)CC[C@@H]12 [enoxolone]
Kd: 34.6 ± 13.4 µM
